Data on 6 molecules can be found in patent US20140275010A1, “QUATERNARY SALTS” (priority 2013, published 2014).

Assay [1] deals with Ad2 pre-mRNA splicing in HeLa nuclear extract. The assay is described as follows: In vitro splicing (biochemical) assay. The following applies: in vitro splicing of Ad2 pre-mRNA, 30° C., 90 min, read-out: Biochem IC50. Here is the method:
In Vitro Splicing (Biochemical) Assay Protocol
Biotin-labeled pre-mRNA of an adenovirus type 2 construct with a deletion of intervening sequence (Ad2)^1 was prepared by in vitro transcription. The Ad2 construct containing Exon 1 (41 nt), Intron (231 nt), and Exon 2 (72 nt) was generated by gene synthesis and cloned into the EcoRI and XbaI sites of pGEM-3Z (Promega) by Genewiz. The plasmid was then linearized by XbaI digestion and purified. In vitro transcription and purification of transcribed pre-mRNA were performed using the MEGAScript T7 kit (Invitrogen) and MEGAclear kit (Invitrogen), respectively, following the manufacturer instructions. The ratio of biotin-16-UTP (Roche) to cold UTP was 1:13 to incorporate approximately two biotin molecules per spliced Ad2 mRNA.
In vitro splicing assay was performed at 30° C. in 25 μL reaction mixtures containing 95 μg HeLa nuclear extract (Promega), 47 nM Ad2 pre-mRNA, 25 U RNasin RNase inhibitor (Promega), 1×SP buffer (0.5 mM ATP, 20 mM creatine phosphate, 1.6 mM MgCl2), and compounds in DMSO (with 1% final concentration of DMSO). After 90 min of incubation, the reaction was stopped by addition of 18 μL of 5M NaCl, and the mixtures were incubated with 10 μL of M-280 streptavidin-coated magnetic beads (Invitrogen) for 30 min at room temperature to capture Ad2 pre- and spliced mRNA. The beads were washed twice with 100 uL buffer containing 10 mM Tris pH=7.5, 1 mM EDTA and 2M NaCl, and then incubated in RNA gel loading buffer containing 95% formamide at 70° C. for 10 min to elute the RNAs. Ad2 RNAs were resolved by 6% TBE-UREA gel, transferred to a nylon membrane, UV cross-linked, and probed with an IR-dye labeled streptavidin (LiCor) using LiCor detection. The amount of spliced RNA was quantified by measuring the band fluorescent intensity using LiCor software.

The test system of assay [2] is Panc 05.04 cells: Pancreatic cancer cells (Q699H and K700E mutations in SF3B1). Description: Cell viability assay (CellTiter-Glo), Panc 05.04 cells. In kind it is cell-based. The following applies: 72 hr; for Gl50 Panc 05.04: Panc 05.04 pancreatic cancer cells, SF3B1 Q699H and K700E, CellTiter-Glo; for Emax Panc 05.04: highest growth inhibition achieved in tested dose range. Here is the method:
(§1) Cells are seeded in 96-well plate with 2000 cells/100 uL/well and incubated overnight. Spent media was removed and fresh media containing compound (100 uL/well) with appropriate 9 concentrations are added. Each compound was treated in duplicate or triplicate manner at each concentration. DMSO concentration was adjusted to be 0.1%. Another plate was dedicated as Tz plate which was added 0.1% DMSO in media (100 uL/well) followed by CellTiter-Glo® (Promega corp., 50 uL/well) for ATP measurement as a surrogate of cell viability. Values from this plate are used as Tz. Compound treated plates are incubated for 72 hr at 37 C. Then, CellTiter-Glo® (50 uL/well) was added and ATP level was measured. Values from compound treated wells are used as Ti and DMSO treated wells are used as C.
(§2) Percentage growth inhibition was calculated as:
(§3) [(Ti−Tz)/(C−Tz)]×100 for concentrations for which Ti>/=Tz
(§4) [(Ti−Tz)/Tz]×100 for concentrations for which Ti<Tz.
(§5) *[time zero, (Tz), control growth (C), and test growth in the presence of drug with dose (Ti)] Growth inhibition of 50% (GI50) was calculated from [(Ti−Tz)/(C−Tz)]×100=50, which was the drug concentration resulting in a 50% reduction in the net protein increase in control cells during the drug incubation. The LC50 (concentration of drug resulting in a 50% reduction in the measured value at the end of the drug treatment as compared to that at the beginning) indicating a net loss of cells following treatment was calculated from [(Ti−Tz)/Tz]×100=−50.
(§6) Emax was defined as highest growth inhibition that particular compound achieved in tested dose range.

Assay [3] deals with WiDr-R cells: Colon cancer cells (chemically-induced SF3B1 mutant which is resistant to E7107 (R1074H mutation)). Description: Cell viability assay (CellTiter-Glo), WiDr-R cells. In kind it is cell-based. The following applies: 72 hr. Here is the method: as §1, §2, §3, §4, §5, §6
For orientation: ATP-based viability assays read luminescence as a measure of living cells.

Assay [4] relates to WiDr cells: Colon cancer cells (wildtype SF3B1). Description: Cell viability assay (CellTiter-Glo), WiDr cells. The format is cell-based. The following applies: 72 hr. Here is the method: as §1, §2, §3, §4, §5, §6
For assay [5], the system named is reporter gene controlled by human VEGF promoter. The following applies: read-out: IC50, inhibition of VEGF-promoted gene expression; cited from earlier work.
Assay [6] deals with U251 human glioma cells. The following applies: U251 human glioma cells in vitro; read-out: IC50, inhibition of glioma cell proliferation; cited from earlier work.

`CC[C@H](O)[C@@H](C)[C@H]1O[C@@H]1C[C@H](C)/C=C/C=C(\C)[C@H]1OC(=O)C[C@H](O)CC[C@@](C)(O)[C@@H](OC(=O)N2CC[N+](C)(C3CCCCCC3)CC2)/C=C/[C@@H]1C.[I-]` [Cpd. 1]: in assay [1], the IC50 came to 0.01 µM. Further, in assay [2], the “Gl50 Panc 05.04” value turned out to be 0.6 nM and the “Emax Panc 05.04” value is given as −61%. The “Gl50 WiDr-R” value in assay [3] was 368 nM. Besides, the “Gl50 WiDr” value in assay [4] is reported as 1.1 nM.

For `CC[C@H](O)[C@@H](C)[C@H]1O[C@@H]1C[C@H](C)/C=C/C=C(\C)[C@H]1OC(=O)C[C@H](O)CC[C@@](C)(O)[C@@H](OC(=O)N2CC[N+](C)(C)CC2)/C=C/[C@@H]1C.[I-]` [Cpd. 2], in assay [1], the IC50 was found to be 0.05 µM. In assay [2], the “Gl50 Panc 05.04” value is reported as 17.0 nM and the “Emax Panc 05.04” value is given as −69%. Besides, in assay [3], the “Gl50 WiDr-R” value is on record as over 1000 nM. In addition, in assay [4], the “Gl50 WiDr” value was determined as 8.9 nM.

In the case of `CC[C@H](O)[C@@H](C)[C@H]1O[C@@H]1C[C@H](C)/C=C/C=C(\C)[C@H]1OC(=O)C[C@H](O)CC[C@@](C)(O)[C@@H](OC(=O)N2CC[N+](C)(C(C)C)CC2)/C=C/[C@@H]1C.[I-]` [Cpd. 3], the IC50 in assay [1] came out at 0.06 µM. Besides, in assay [2], the “Gl50 Panc 05.04” value is on record as 16.2 nM and the “Emax Panc 05.04” value is −66%. The “Gl50 WiDr-R” value in assay [3] is listed as over 100 nM. Moreover, in assay [4], the “Gl50 WiDr” value was 2.8 nM.

`CC[C@H](O)[C@@H](C)[C@H]1O[C@@H]1C[C@H](C)/C=C/C=C(\C)[C@H]1OC(=O)C[C@H](O)CC[C@@](C)(O)[C@@H](OC(=O)N2CCC[N+](C)(C(C)C)CC2)/C=C/[C@@H]1C.[I-]` (stereo partly drawn) [Cpd. 10]: the IC50 in assay [1] worked out at 0.06 µM. Further, in assay [2], the “Gl50 Panc 05.04” value is 1.3 nM and the “Emax Panc 05.04” value is given as −65%. Moreover, in assay [3], the “Gl50 WiDr-R” value is recorded as over 1000 nM. Also, the “Gl50 WiDr” value in assay [4] is listed as 1.9 nM.

For the molecule `CC[C@H](O)[C@@H](C)[C@H]1O[C@@H]1C[C@@](C)(O)/C=C/C=C(\C)[C@H]1OC(=O)C[C@H](O)CC[C@@](C)(O)[C@@H](OC(=O)N2CC[N+](C)(C3CCCCCC3)CC2)/C=C/[C@@H]1C.[I-]` [Cpd. 17], the IC50 in assay [1] was under 0.1 µM. In assay [2], the “Gl50 Panc 05.04” value is given as 607.8 nM and the “Emax Panc 05.04” value is −47%. For the same molecule, the “Gl50 WiDr-R” value in assay [3] was over 1000 nM. Also, the “Gl50 WiDr” value in assay [4] was 64.5 nM.

Take `CCC(O)C(C)C1OC1CC(C)/C=C/C=C(\C)C1OC(=O)CC(O)CCC(C)(O)C(OC(C)=O)/C=C/C1C` (stereo not drawn) [Pladienolide B]: the figures for the IC50 in assay [5] and in assay [6] were 0.0018 µM and 0.0035 µM, respectively.
